Measured values published in PubChem BioAssay (NCI).
Where “and” joins values, the source holds several entries; their conditions need not be identical. Identical values can stand only once.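 Protocol summary: plate cells (96-well), add compound at 5 concentrations, incubate 48 h, interpolate endpoints linearly. GI50 = concentration required for 50% inhibition of growth. Definition used: TGI = concentration required for complete inhibition of growth.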

Test system: MDA-MB-468 breast
Test: inhibition of tumour cell growth, NCI panel, 48 h

SMILES | GI50 | TGI
COc1cc(OC)c(C(=O)/C=C/c2cc3c(cc2OCc2ccccc2)OC(C)(C)CC3)cc1CC=C(C)C | 1.86 µM | 7.84 µM
O=[N+]([O-])c1cc(Cl)c2[nH]c3c(Cl)cc([N+](=O)[O-])cc3c2c1 | 0.169 µM | 2.26 µM
CS(=O)(=O)CCNCc1cc(-c2cc3c(Nc4ccc(OCc5cccc(F)c5)c(Cl)c4)ncnc3s2)cs1 | 0.569 µM | 4.13 µM
FC(F)(c1ccc2ncccc2c1)c1nnc2ccc(-c3ccncc3)nn12 | 53.5 µM | > 100 µM
COc1ccc2c(=O)cc(-c3ccccc3)[nH]c2c1 | 0.887 µM | > 100 µM
O=C(/C=C/C12c3ccccc3C(c3ccccc31)C1C(=O)NC(=O)C12)c1ccc(Cl)cc1Cl (configuration not stated) | 1.96 µM | 4.13 µM
COc1ccc(/C=C/C(=O)/C=C/c2cc3ccccc3[nH]c2=O)cc1 | 2.32 µM | 6.59 µM
C[C@@H]1C[C@H](C)CN(S(=O)(=O)c2ccc3c(NO)c4ccc(S(=O)(=O)N5C[C@H](C)C[C@H](C)C5)cc4c(N=O)c3c2)C1 | 0.154 µM | 0.312 µM
COc1cc(F)c(F)c(Nc2ccc(I)cc2F)c1NS(=O)(=O)C1(C[C@H](O)CO)CC1 | > 5.95 µM | > 10 µM
CC(C)c1c(-c2ccccc2)nc2c(C#N)c[nH]n2c1=O | 19.1 µM | 50.9 µM
Nc1nonc1-c1nc2cnccc2n1C1CC1 | 1.96 µM | 10.1 µM
CCC(O)c1ccc(Br)cc1NC(=O)c1cccc(Cl)c1 (configuration not stated) | 20.3 µM | 56.5 µM
O=S(=O)(NCCNc1nccc(-c2c(-c3ccc(F)c(O)c3)nc3sccn23)n1)c1ccc(F)cc1 | 2.97 µM | 25.5 µM
CC(C)Nc1cc(-c2c[nH]c(C(=O)N[C@H](CO)c3cccc(Cl)c3)c2)c(Cl)cn1 | 3.54 µM and 5.12 µM | 18.3 µM and > 10 µM
CC(=O)c1ccc2c(c1)C1C=CCC1[C@H](c1cc3c(cc1Br)OCO3)N2 (some centres not stated) | 0.308 µM | 
CCOC(=O)C(Cc1c[nH]c2c(N(CCO)CCO)cccc12)(NC(C)=O)C(=O)OCC |  | 132 µM
Cc1ncc(C(=O)Nc2ccc(CN3CCN(C)CC3)c(C(F)(F)F)c2)cc1C#Cc1cnc2cccnn12 | 1.11 µM | 3.41 µM
O=C(NOC[C@H](O)CO)c1ccc(F)c(F)c1Nc1ccc(I)cc1F | 13.9 µM | > 100 µM
CCCCCCCCCCCCCCCCCC1=NC(C)(C)CN1CC(C)O (configuration not stated) | 12.1 µM | 24.4 µM
Cn1c(C(=O)c2ccncc2)cc2ccccc21 | 32.3 µM | > 100 µM
CN(Cc1cnc2nc(N)nc(N)c2n1)c1ccc(C(=O)N[C@@H](CCC(=O)O)C(=O)O)cc1 |  | > 250 µM
O=c1c2cc(F)ccc2sc2c(N3CCNCC3)nc3ccc(F)cc3c12 | 1.58 µM | 3.05 µM
CCOC(=O)Nc1nc2ccc(OC)cc2s1 | 69.4 µM | > 100 µM
COc1cc2nc(SCc3cc(OC)c(OC)c(OC)c3)n(Cc3ccccc3)c(=O)c2cc1OC | 0.307 µM | 1.91 µM
O=C1/C(=C/c2cccc(Br)c2)COc2ccc(O)cc21 | 1.75 µM | 4.33 µM
Cc1nc(-c2ccccc2)n2nc(NCCCN3CCOCC3)ncc12 | > 5.33 µM | > 25 µM
CCCCCCCCOC(=O)CC[C@@H](C)[C@H]1CC[C@H]2[C@@H]3[C@H](OC(=O)CCN)C[C@@H]4C[C@H](OC(=O)CCN)CC[C@]4(C)[C@H]3C[C@H](OC(=O)CCN)[C@]12C | 2.49 µM | 7.17 µM
O=C(/C=C/c1ccccc1)C(Br)C(Br)c1ccccc1 (configuration not stated) | 1.31 µM | 3.48 µM
COc1ccc(-c2ccncc2)cc1C(N)=O | > 25 µM | > 25 µM
CC(=O)Oc1ccc(C23c4ccccc4C2(OC(C)=O)c2cc(OC(C)=O)ccc23)cc1 (configuration not stated) | 0.57 µM | 5.02 µM
